Results on two compounds are retold here after US20100075926A1, “ACTIVATION OF HISTONE DEACETYLASE 1 (HDAC1) PROTECTS AGAINST DNA DAMAGE AND INCREASES NEURONAL SURVIVAL” (priority 2008, published 2010).

The test system of series [1] is leukemia patients. The note with it: phase I clinical trial; cited from earlier work.
For series [2], the system named is primary cortical neurons. In words: γH2AX and Ki-67 immunostaining of primary cortical neurons treated with HDAC1 inhibitor. The format is cell-based. The note with it: 1 μM, 24 h, compared to vehicle (DMSO) controls. The method, then: (A, B) Primary cortical neurons were transfected with either HDAC1 siRNA or random sequence siRNA, along with GFP at a 7:1 ratio to label transfected neurons. Cells were fixed at 24 h, 48 h, and 72 h post-transfection and immunostained for γH2AX. GFP-positive neurons were scored for γH2AX immunoreactivity and for cell death based on nuclear condensation and neuritic integrity, as described in Methods. (A) Representative micrographs. HDAC1 siRNA or control (random sequence) siRNA transfected neurons are indicated by arrows. The HDAC1 siRNA transfected neurons display neuritic breakage. The inset is a magnification of the γH2AX staining of the neuron indicated by arrow and asterisk, showing γH2AX foci of varying sizes. Percentage of γH2AX and cell death are shown as averages from multiple sets ±S.D. It was noted that transfection of control siRNA per se appeared to cause a low but detectable level of γH2AX immunoreactivity and cell death. […] Controls were treated with equal amounts of vehicle (DMSO). Total numbers of γH2AX and Ki-67 positive neurons were quantified over 20 microscope fields (field diameter ˜900 μm). Scale bar=100 μm. […] Scale bar=[…].
Our findings raised the possibility that p25/cdk5 may cause both cell cycle reentry and DNA damage through inhibition of HDAC1 activity. We examined the effects of siRNA-mediated knockdown or pharmacological inhibition of HDAC1.

Series [3] concerns WT mice. Put plainly: Contextual fear conditioning in WT mice. The format is in vivo, mouse. The method, then:
Fear conditioning. Fear conditioning experiments were carried out as previously described (Kim et al., 2007), using a fear conditioning apparatus (TSE Systems, Midland, Mich.).

The test system of series [4] is brain-derived neurotrophic factor (BDNF) expression in glioma cell line (C6). Put plainly: BDNF expression in glioma cell line (C6). The format is cell-based. The note with it: submicromolar concentrations, data not shown.

Take `Nc1ccccc1NC(=O)c1ccc(CNC(=O)OCc2cccnc2)cc1` [MS-275]: in series [1], the “dose-limiting toxicity (DLT)” value is “neurologic toxicity manifesting as unsteady gait and somnolence”. Further, in series [2], the “aberrant expression of Ki-67 (Ki-67 positive neurons)” value stood at 1.8 fold increase and the “double strand DNA breaks (γH2AX positive neurons)” value turned out to be 8.1 fold increase. Besides, the “freezing behavior in contextual fear conditioning” value in series [3] (25 mg/kg IP daily for 10 days, vs saline) was “reduced freezing behavior”. The “associative learning capability (contextual fear conditioning)” value in series [3] (12.5 or 25 mg/kg IP daily for 10 days) is “impaired associative learning capability”.
With `O=C(CCCCCCC(=O)Nc1ccccc1)NO` [SAHA, suberoylanilide hydroxamic acid], the “expression of brain-derived neurotrophic factor (BDNF)” value in series [4] is on record as “induced expression”.
